Measured values as given in publication PMC10477886, “Adamantaniline Derivatives Target ATP5B to Inhibit Translation of Hypoxia Inducible Factor‐1α” (Advanced Science, 2023).

Columns and labels:
[1] = system: HIF‐1α protein synthesis; experiment: AHA labeling assay of nascent HIF‐1α protein; assay type: cell-based, human; settings: HEK293T, hypoxia, 10 or 20 µM
Experimental: Lysosome and ubiquitin/proteasome systems are two main pathways for cellular protein degradation.^[ [49], [50] ^] MG‐132 and PS‐341 are potent, selective, and reversible proteasome inhibitors, chloroquine (CQ) and NH4Cl are autophagy inhibitors that inhibit lysosomal degradation by increasing lysosomal pH. MG‐132, PS‐341, CQ, NH4Cl, and DMSO at indicated concentrations were added to HEK293T cells for 6 h followed by treatment with DMSO or 10 µM HI‐101 for another 12 h under hypoxia condition. Cells were then collected, lysed, and immunoblotted to detect HIF‐1α protein level. […] In order to verify whether HI‐101 inhibited the synthesis of HIF‐1α protein, L‐azidohomoalanine (AHA) labeling assay^[ [51] ^] was carried out. The nascent protein was labeled by AHA incorporation, enriched by click reaction, and detected by anti‐biotin antibody.
HEK293T cells seeded in 10 cm dishes were added with DMSO or HI‐101 at concentrations 10 or 20 µM, then cultured in hypoxia incubator. The next day, cells were washed twice with PBS and incubated in DMEM without methionine for 4 h. At the same time, add […] (AHA) to all groups, and the positive control group treatment with cycloheximide (CHX). AHA concentration and incubation time were 50 µM and 4 h. […]

[2] = molecular target: T1, interaction between ATP5B and HIF‐1α mRNA (Homo sapiens, UniProt P06576); experiment: RNA‐binding protein immunoprecipitation; assay type: cell-based; settings: immunoprecipitation with anti‐ATP5B antibody
T1 construct: endogenous in cells
From the text: It has been reported recently that KUSC‐5037 inhibited HIF‐1α transcription by suppressing FoF1‐ATP synthase activity.^[ [35] ^] Thus, we wondered whether HI‐101 inhibited HIF‐1α translation in a similar way. Several ATP synthase inhibitors with various mechanisms of action have been reported.^[ [54] ^] Among them, Oligomycin inhibits the ATP synthase activity by binding the FO domain; Bedaquiline, an FDA‐approved drug, inhibits mitochondrial ATP production by targeting the gamma subunit of the ATP synthase;^[ [55] ^] Aurovertin B decreases ATP synthase activity by targeting the subunits of F1 domain. We first measured HIF‐1α transcriptional activity and protein level with the presence of reported ATP synthase inhibitors. […] A recent study reported that ATP5B shut down mPTP by binding circRNA SCAR in an enzymatic‐independent way,^[ [56] ^] which reminded us whether ATP5B played a similar role in blocking HIF‐1α translation. RNA‐binding protein immunoprecipitation was then performed using the Magna RIP RNA‐Binding Protein Immunoprecipitation Kit (Millipore, Burlington, MA) to detect the interaction between ATP5B and HIF‐1α mRNA.

[3] = system: HIF‐1α protein level; experiment: western blot of HIF‐1α protein level in cells; assay type: cell-based, human
Experimental: Cells were lysed with RIPA lysis (Epizyme, PC101) containing 1% cocktail protease inhibitors (MCE), and protein concentrations were determined by BCA kits (Beyotime, P0012S). Samples were denatured using DS‐PAGE Protein Staining and Loading Buffer (5×) (Beyotime, P0015L) followed by boiling for 10 min at 98 °C then the proteins were fractionated by 10% or 12.5% SDS‐PAGE and transferred to Cellulose Nitrate Membrane Filters (WHATMAN). After blocking in 5% non‐fat milk for 2 h at room temperature, the membrane was incubated overnight with specific antibodies at 4 °C, followed by horseradish peroxidase (HRP)‐linked anti‐mouse or anti‐rabbit secondary antibody (Cell Signaling Technology). Finally, An Immobilon Western Chemiluminescent HRP Substrate Kit (Merck Millipore) was used for protein bands detection. In addition, blots were probed with anti‐β‐actin (Merck, Darmstadt, Germany) antibody as the internal control.

[4] = molecular target: F1‐ATP synthase complex (Sus scrofa, UniProt K7GLT8+P80021); experiment: fluorescence polarization binding assay; set-up: species or system pig; settings: F1‐ATPase 30 nM, HI‐103 4 nM, competitor 1 μM
From the text: ATP5A and ATP5B are important components of FOF1–ATP synthase, also known as ATP synthase, which is a protein complex that catalyzes ATP synthesis by utilizing energy from the translocation of protons across biological membranes.^[ [40] ^] FOF1‐ATP synthase consists of two domains: the membrane‐spanning domain, FO, which acts as a proton channel, and the soluble catalytic domain, F1, which synthesizes ATP and is composed of nine subunits(α 3 β 3 γδɛ).^[ [41], [42], [43], [44] ^] […] To verify whether HI‐101 targeted ATP5A and ATP5B, we knocked down the subunits of F1 domains separately by shRNA.
F1‐ATPase at indicated concentrations was incubated with HI‐103 (4 nM), bodipy‐1 was as a negative molecule, conduct the experiment after incubating in 96‐well microplates of black polystyrene for 10 min. The FP results were analyzed with GraphPad Prism 9.0.

[5] = molecular target: T2, ATP synthase (Bos taurus, UniProt P00829); experiment: MitoTox Complex V OXPHOS activity assay; assay type: biochemical; settings: up to 50 µM
T2 construct: purchased Abcam ab109907
Experimental: The activity of complex V was determined using the MitoTox Complex V OXPHOS Activity Assay kit from Abcam (ab109907, Cambridge, MA, USA), according to the instructions. The activity of complex V was measured by monitoring the change in absorbance at 340 nm over a period of 2 h at 30 °C. Oligomycin (Selleck, […]) was used as a positive control for the assay.

For `O=C(Nc1ccc(C23CC4CC(CC(C4)C2)C3)cc1)c1cccc(Cl)c1` [1‐3a, N‐(4‐((3r,5r,7r)‐Adamantan‐1‐yl)Phenyl)−3‐Chlorobenzamide], the “HIF‐1α protein synthesis (nascent, AHA labeled)” value [1] was “significantly inhibited”, the “HIF‐1α mRNA binding to ATP5B” value [2] was “improved HIF‐1α mRNA binding to ATP5B” and the “rate of HIF‐1α protein degradation” value ([3]; 10 µM with 100 µg mL^−1 CHX, hypoxia) was “did not have a significant effect on the rate of HIF‐1α protein degradation”. For the same compound, the “HIF‐1α protein expression” value ([3]; ATP5A or ATP5B knocked down by shRNA, up to 30 µM) was “failed to decrease HIF‐1α protein expression”, the “HIF‐1α protein level” value ([3]; hit confirmation, Figure S5) was “significantly reduced HIF‐1α protein level” and the “HIF‐1α protein level” value ([3]; hypoxia) was “specifically reduced the protein level of HIF‐1α in a dose‐dependent manner”. The “competitive fluorescence polarization binding” value [4] was “bound to F1‐ATP synthase complex in a similar way as HI‐103” and the ATP synthase activity [5] was “no effect on ATP synthase activity”.
